Patent US11939344B2, “Spirocyclic compounds” (ASTRAZENECA AB, priority 2021, dated 2024)

Tests used:
Format in all cases: cell-based
HCT116 KO-MTAP cells [1] = experiment: PRMT5 cell SDMA assay, MTAP KO cells; settings: Homo sapiens
HCT116 WT cells [2] = experiment: PRMT5 cell SDMA assay, MTAP WT cells; settings: Homo sapiens
HCT116 KO-MTAP cells [3] = experiment: Cell proliferation assay (Alamar Blue), MTAP KO cells; settings: Homo sapiens
Experimental: (§1) Cell Proliferation Assays:
(§2) A day 0 plate is created in parallel but not dosed, after plating 4 μl of Alamar Blue (Thermo #DAL1100) and incubate for 3 h at 37 C, 5% CO2.
(§3) The dosed cell plates were then incubated for 5 days at 37° C. before adding Alamar blue and being read in the Envision following same protocol as for first plate.

HCT116 WT cells [4] = experiment: Cell proliferation assay (Alamar Blue), MTAP WT cells; settings: Homo sapiens, HCT-116, 120 h, 5 days
Experimental: as §1, §2, §3

[5] = HCT-116, HCT116 MTAP KO, 48 hours, read-out: Cell SDMA IC50 (μM) (MTAP KO)
[6] = HCT-116, HCT116 MTAP WT, 48 hours, read-out: Cell SDMA IC50 (μM) (MTAP WT)
[7] = HCT-116, 120 h, HCT116 MTAP KO, 5 days, read-out: Cell proliferation IC50 (μM) (MTAP KO)

Compound: C[C@@H](N1CC[C@@]2(C1=O)c1ccc(F)cc1C(=O)N2Cc1cc2nc(N)c(F)cc2[nH]1)C1(C)CC1 (relative stereo) [Example 19, (S)-2-((5-Amino-6-fluoro-1H-pyrrolo[3,2-b]pyridin-2-yl)methyl)-5-fluoro-1′-((R*)-1-(1-methylcyclopropyl)ethyl)spiro[isoindoline-1,3′-pyrrolidine]-2′,3-dione]
- IC50 (HCT116 KO-MTAP cells [1]; [5]): 0.032 µM
- IC50 (HCT116 WT cells [2]; [6]): 0.86 µM

Compound: Nc1nc2cc(CN3C(=O)c4cnccc4[C@]34CCN(Cc3ccc(F)cc3)C4=O)[nH]c2cc1F (single isomer, unassigned) [Example 22]
- IC50 (HCT116 KO-MTAP cells [1]; [5]): 0.011 µM
- IC50 (HCT116 WT cells [2]; [6]): 0.51 µM

Compound: Nc1nc2cc(CN3C(=O)c4ccncc4[C@]34CCN(Cc3ccc(F)cc3)C4=O)[nH]c2cc1F (single isomer, unassigned) [Example 25]
- IC50 (HCT116 KO-MTAP cells [1]; [5]): 0.014 µM
- IC50 (HCT116 WT cells [2]; [6]): 0.44 µM

Compound: C[C@H]1C[C@@]2(C(=O)N1C)c1ccc(F)cc1C(=O)N2Cc1cc2nc(N)c(F)cc2[nH]1 (single isomer, unassigned) [Example 29]
- IC50 (HCT116 KO-MTAP cells [1]; [5]): 0.018 µM
- IC50 (HCT116 WT cells [2]; [6]): 0.81 µM

Compound: Nc1nc2cc(CN3C(=O)c4cc(F)ccc4[C@]34CCN(Cc3ccc(F)cc3)C4=O)[nH]c2cc1F [Example 1, (S)-2-((5-Amino-6-fluoro-1H-pyrrolo[3,2-b]pyridin-2-yl)methyl)-5-fluoro-1′-(4-fluorobenzyl)spiro[isoindoline-1,3′-pyrrolidine]-2′,3-dione]
- IC50 (HCT116 KO-MTAP cells [1]; HCT-116, 48 h, read-out: Cell SDMA IC50 (μM) (MTAP KO)): 0.0053 µM
- IC50 (HCT116 KO-MTAP cells [1]; HCT-116, read-out: Cell SDMA IC50, MTAP knock out HCT116 cells): 0.0053 µM
- IC50 (HCT116 WT cells [2]; HCT-116, 48 h, read-out: Cell SDMA IC50 (μM) (MTAP WT)): 0.29 µM
- IC50 (HCT116 WT cells [2]; HCT-116, read-out: Cell SDMA IC50, HCT116 wild type cells): 0.29 µM
- IC50 (HCT116 KO-MTAP cells [3]; [7]): 0.16 µM
- IC50 (HCT116 KO-MTAP cells [3]; HCT-116, column 6, read-out: Cell proliferation IC50 in MTAP KO cells): 0.16 µM
- IC50 (HCT116 WT cells [4]): > 30 µM

Compound: Cn1cc(C#CCN2CC[C@@]3(C2=O)c2ccc(F)cc2C(=O)N3Cc2cc3nc(N)c(F)cc3[nH]2)cn1 [Example 4, (S)-2-((5-Amino-6-fluoro-1H-pyrrolo[3,2-b]pyridin-2-yl)methyl)-5-fluoro-1′-(3-(1-methyl-1H-pyrazol-4-yl)prop-2-yn-1-yl)spiro[isoindoline-1,3′-pyrrolidine]-2′,3-dione]
- IC50 (HCT116 KO-MTAP cells [1]; [5]): 0.0094 µM
- IC50 (HCT116 WT cells [2]; [6]): 0.19 µM

Compound: N#Cc1ccc(CN2CC[C@@]3(C2=O)c2ccc(F)cc2C(=O)N3Cc2cc3nc(N)c(F)cc3[nH]2)cc1F [Example 5, (S)-4-((2-((5-Amino-6-fluoro-1H-pyrrolo[3,2-b]pyridin-2-yl)methyl)-5-fluoro-2′,3-dioxospiro[isoindoline-1,3′-pyrrolidin]-1′-yl)methyl)-2-fluorobenzonitrile]
- IC50 (HCT116 KO-MTAP cells [1]; [5]): 0.0057 µM
- IC50 (HCT116 WT cells [2]; [6]): 0.17 µM

Compound: Nc1nc2cc(CN3C(=O)c4cc(F)ccc4[C@]34CCN(Cc3cccc(-n5nccn5)c3)C4=O)[nH]c2cc1F [Example 6, (S)-1′-(3-(2H-1,2,3-Triazol-2-yl)benzyl)-2-((5-amino-6-fluoro-1H-pyrrolo[3,2-b]pyridin-2-yl)methyl)-5-fluorospiro[isoindoline-1,3′-pyrrolidine]-2′,3-dione]
- IC50 (HCT116 KO-MTAP cells [1]; [5]): 0.0017 µM
- IC50 (HCT116 WT cells [2]; [6]): 0.054 µM

Compound: Nc1nc2cc(CN3C(=O)c4cc(F)ccc4[C@]34CCN(Cc3cc(F)ccc3F)C4=O)[nH]c2cc1F [Example 7, (S)-2-((5-Amino-6-fluoro-1H-pyrrolo[3,2-b]pyridin-2-yl)methyl)-1′-(2,5-difluorobenzyl)-5-fluorospiro[isoindoline-1,3′-pyrrolidine]-2′,3-dione]
- IC50 (HCT116 KO-MTAP cells [1]; [5]): 0.0017 µM
- IC50 (HCT116 WT cells [2]; [6]): 0.036 µM

Compound: Nc1nc2cc(CN3C(=O)c4cc(F)ccc4[C@]34CCN(CC(F)F)C4=O)[nH]c2cc1F [Example 8, (S)-2-((5-Amino-6-fluoro-1H-pyrrolo[3,2-b]pyridin-2-yl)methyl)-1′-(2,2-difluoroethyl)-5-fluorospiro[isoindoline-1,3′-pyrrolidine]-2′,3-dione]
- IC50 (HCT116 KO-MTAP cells [1]; [5]): 0.025 µM
- IC50 (HCT116 WT cells [2]; [6]): > 1.5 µM
- IC50 (HCT116 KO-MTAP cells [3]; [7]): 1.9 µM
- IC50 (HCT116 WT cells [4]): > 30 µM

Compound: Nc1nc2cc(CN3C(=O)c4cc(F)ccc4[C@]34CCN(CC3(CF)CC3)C4=O)[nH]c2cc1F [Example 9, (S)-2-((5-Amino-6-fluoro-1H-pyrrolo[3,2-b]pyridin-2-yl)methyl)-5-fluoro-1′-((1-(fluoromethyl)cyclopropyl)methyl)spiro[isoindoline-1,3′-pyrrolidine]-2′,3-dione]
- IC50 (HCT116 KO-MTAP cells [1]; [5]): 0.015 µM
- IC50 (HCT116 WT cells [2]; [6]): 0.53 µM

Compound: CN1CC[C@@]2(C1=O)c1ccc(F)cc1C(=O)N2Cc1cc2nc(N)c(F)cc2[nH]1 [Example 10, (S)-2-((5-Amino-6-fluoro-1H-pyrrolo[3,2-b]pyridin-2-yl)methyl)-5-fluoro-1′-methylspiro[isoindoline-1,3′-pyrrolidine]-2′,3-dione]
- IC50 (HCT116 KO-MTAP cells [1]; [5]): 0.023 µM
- IC50 (HCT116 WT cells [2]; [6]): 1.7 µM
- IC50 (HCT116 KO-MTAP cells [3]; [7]): 1.6 µM
- IC50 (HCT116 WT cells [4]): > 30 µM

Compound: Nc1nc2cc(CN3C(=O)c4cc(F)ccc4[C@]34CCN(CCOC(F)F)C4=O)[nH]c2cc1F [Example 11, (S)-2-((5-Amino-6-fluoro-1H-pyrrolo[3,2-b]pyridin-2-yl)methyl)-1′-(2-(difluoromethoxy)ethyl)-5-fluorospiro[isoindoline-1,3′-pyrrolidine]-2′,3-dione]
- IC50 (HCT116 KO-MTAP cells [1]; [5]): 0.02 µM
- IC50 (HCT116 WT cells [2]; [6]): 0.81 µM

Compound: Nc1nc2cc(CN3C(=O)c4cc(F)ccc4[C@]34CCN(Cc3ncccc3F)C4=O)[nH]c2cc1F [Example 12, (S)-2-((5-Amino-6-fluoro-1H-pyrrolo[3,2-b]pyridin-2-yl)methyl)-5-fluoro-1′-((3-fluoropyridin-2-yl)methyl)spiro[isoindoline-1,3′-pyrrolidine]-2′,3-dione]
- IC50 (HCT116 KO-MTAP cells [1]; [5]): 0.0088 µM
- IC50 (HCT116 WT cells [2]; [6]): 0.43 µM

Compound: Nc1nc2cc(CN3C(=O)c4cc(F)ccc4[C@]34CCN(Cc3ccno3)C4=O)[nH]c2cc1F [Example 13, (S)-2-((5-Amino-6-fluoro-1H-pyrrolo[3,2-b]pyridin-2-yl)methyl)-5-fluoro-1′-(isoxazol-5-ylmethyl)spiro[isoindoline-1,3′-pyrrolidine]-2′,3-dione]
- IC50 (HCT116 KO-MTAP cells [1]; [5]): 0.0084 µM
- IC50 (HCT116 WT cells [2]; [6]): 0.34 µM

Compound: Nc1nc2cc(CN3C(=O)c4cc(F)ccc4[C@]34CCN(Cc3cc(C(F)(F)F)cnn3)C4=O)[nH]c2cc1F [Example 14, (S)-2-((5-Amino-6-fluoro-1H-pyrrolo[3,2-b]pyridin-2-yl)methyl)-5-fluoro-1′-((5-(trifluoromethyl)pyridazin-3-yl)methyl)spiro[isoindoline-1,3′-pyrrolidine]-2′,3-dione]
- IC50 (HCT116 KO-MTAP cells [1]; [5]): 0.006 µM
- IC50 (HCT116 WT cells [2]; [6]): 0.088 µM

Compound: Cn1ncc2cc(CN3CC[C@@]4(C3=O)c3ccc(F)cc3C(=O)N4Cc3cc4nc(N)c(F)cc4[nH]3)ccc21 [Example 15, (S)-2-((5-Amino-6-fluoro-1H-pyrrolo[3,2-b]pyridin-2-yl)methyl)-5-fluoro-1′-((1-methyl-1H-indazol-5-yl)methyl)spiro[isoindoline-1,3′-pyrrolidine]-2′,3-dione]
- IC50 (HCT116 KO-MTAP cells [1]; [5]): 0.0036 µM
- IC50 (HCT116 WT cells [2]; [6]): 0.12 µM

Compound: Nc1nc2cc(CN3C(=O)c4cc(F)ccc4[C@]34CCN(Cc3nc5ccccc5o3)C4=O)[nH]c2cc1F [Example 16, (S)-2-((5-Amino-6-fluoro-1H-pyrrolo[3,2-b]pyridin-2-yl)methyl)-1′-(benzo[d]oxazol-2-ylmethyl)-5-fluorospiro[isoindoline-1,3′-pyrrolidine]-2′,3-dione]
- IC50 (HCT116 KO-MTAP cells [1]; [5]): 0.0051 µM
- IC50 (HCT116 WT cells [2]; [6]): 0.23 µM

Compound: Nc1nc2cc(CN3C(=O)c4cc(F)ccc4[C@]34CCN(CCOc3ccc(F)cc3)C4=O)[nH]c2cc1F [Example 17, (S)-2-((5-Amino-6-fluoro-1H-pyrrolo[3,2-b]pyridin-2-yl)methyl)-5-fluoro-1′-(2-(4-fluorophenoxy)ethyl)spiro[isoindoline-1,3′-pyrrolidine]-2′,3-dione]
- IC50 (HCT116 KO-MTAP cells [1]; [5]): 0.0068 µM
- IC50 (HCT116 WT cells [2]; [6]): 0.42 µM

Compound: Cc1ncsc1CCN1CC[C@@]2(C1=O)c1ccc(F)cc1C(=O)N2Cc1cc2nc(N)c(F)cc2[nH]1 [Example 18, (S)-2-((5-Amino-6-fluoro-1H-pyrrolo[3,2-b]pyridin-2-yl)methyl)-5-fluoro-1′-(2-(4-methylthiazol-5-yl)ethyl)spiro[isoindoline-1,3′-pyrrolidine]-2′,3-dione]
- IC50 (HCT116 KO-MTAP cells [1]; [5]): 0.0066 µM
- IC50 (HCT116 WT cells [2]; [6]): 0.37 µM

Compound: Nc1nc2cc(CN3C(=O)c4cc(F)ccc4[C@]34CCN(CC#CC3CC3)C4=O)[nH]c2cc1F [Example 20, (S)-2-((5-Amino-6-fluoro-1H-pyrrolo[3,2-b]pyridin-2-yl)methyl)-1′-(3-cyclopropylprop-2-yn-1-yl)-5-fluorospiro[isoindoline-1,3′-pyrrolidine]-2′,3-dione]
- IC50 (HCT116 KO-MTAP cells [1]; [5]): 0.0029 µM
- IC50 (HCT116 WT cells [2]; [6]): 0.16 µM

Compound: Nc1nc2cc(CN3C(=O)c4c(Cl)cccc4[C@]34CCN(Cc3ccc(F)cc3)C4=O)[nH]c2cc1F [Example 21, (S)-2-((5-Amino-6-fluoro-1H-pyrrolo[3,2-b]pyridin-2-yl)methyl)-4-chloro-1′-(4-fluorobenzyl)spiro[isoindoline-1,3′-pyrrolidine]-2′,3-dione]
- IC50 (HCT116 KO-MTAP cells [1]; [5]): 0.086 µM
- IC50 (HCT116 WT cells [2]; [6]): 3.2 µM

Compound: Cc1cc(F)cc2c1[C@]1(CCN(C)C1=O)N(Cc1cc3nc(N)c(F)cc3[nH]1)C2=O [Example 23, (S)-2-((5-Amino-6-fluoro-1H-pyrrolo[3,2-b]pyridin-2-yl)methyl)-5-fluoro-1′,7-dimethylspiro[isoindoline-1,3′-pyrrolidine]-2′,3-dione]
- IC50 (HCT116 KO-MTAP cells [1]; [5]): 0.16 µM
- IC50 (HCT116 WT cells [2]; [6]): 12 µM

Compound: COc1cc(F)cc2c1[C@]1(CCN(C)C1=O)N(Cc1cc3nc(N)c(F)cc3[nH]1)C2=O [Example 24, (S)-2-((5-Amino-6-fluoro-1H-pyrrolo[3,2-b]pyridin-2-yl)methyl)-5-fluoro-7-methoxy-1′-methylspiro[isoindoline-1,3′-pyrrolidine]-2′,3-dione]
- IC50 (HCT116 KO-MTAP cells [1]; [5]): 0.032 µM
- IC50 (HCT116 WT cells [2]; [6]): 1.2 µM
